Where “and” joins values, the source holds several entries; their conditions need not be identical. Equal entries are not always repeated.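 Compound exposure: 48 hours, 5 concentrations, 96-well plates. The concentration for 50% growth inhibition is given as GI50. The concentration for full growth arrest is given as TGI.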
System: MDA-MB-468 breast
Assay: inhibition of tumour cell growth, NCI panel, 48 h

`CC[C@H](Nc1nc(N)nc(C)c1C#N)c1nc2cccc(CN(C)c3ncc(C(=O)NO)cn3)c2c(=O)n1-c1ccccc1` gave a GI50 of 0.367 µM and a TGI of 10.5 µM.

`Fc1ccc(-c2nc3n(c2-c2ccncc2)CCS3)cc1` was tested, and the GI50 was 4.63 µM and the TGI was > 25 µM.

`CCn1c(-c2nonc2N)nc2cncc(C(=O)N3CCNCC3)c21` was tested, and the GI50 was > 25 µM and the TGI was > 25 µM.

`CC(=O)/C(N=Nc1ccc2oc(=O)ccc2c1)=C(\C)O` gave a GI50 of 2.74 µM and a TGI of 12.7 µM.

`O=c1cc(CNc2cc(F)cc(F)c2)c2ccc(I)cc2[nH]1` was tested, and the GI50 was 0.409 µM and the TGI was > 100 µM.

`CC12CCC=CC1CCC1C2CCC2(C)C(c3ccc(=O)oc3)CCC12O` (stereo not given) was tested, and the GI50 was 0.313 µM and the TGI was 1.22 µM.

In the case of `CC1=C2C(=C[C@@](C)(COC(=O)c3ccc(S(=O)(=O)F)cc3)[C@@H]2OC(=O)c2ccc(S(=O)(=O)F)cc2)C(=O)[C@](C)(O)C12CC2`, the GI50 is reported as 0.187 µM and the TGI is reported as 0.465 µM.

`CN(C)CCNC(=O)c1cccn2c(=O)c3cc4ccccc4cc3nc12` gave a GI50 of 0.299 µM and a TGI of 1.12 µM.

`CCN=C1C=CC(=C(c2ccc(N(C)C)cc2)c2ccc(N(C)C)cc2)c2ccccc21` showed a GI50 of 0.047 µM and a TGI of 0.346 µM.

`N#Cc1ncc(/N=C/c2ccc(N(CCCl)CCCl)cc2)s1` showed a GI50 of 0.436 µM and a TGI of 3.65 µM.

For `C[C@]12CC[C@H]3[C@@H](CCC4=CC(=O)CC[C@@H]43)[C@@H]1CC[C@@H]2OC(=O)N(CCCl)N=O`, the GI50 was 0.512 µM and the TGI was 5.7 µM.

`CCN(CC)CCOc1ccc(C(=C(C)c2ccc(Cl)cc2)c2ccc(OCCN(CC)CC)cc2)cc1` gave a GI50 of 0.556 µM and a TGI of 1.1 µM.

For `COc1ccc(-c2ccc(-c3ccc(C(=N)N)nc3)s2)cc1`, the GI50 was 1.63 µM and the TGI was 3.11 µM.

For `CCN1C(=O)N(CC)C2C1NN=c1s/c(=C3\C(=O)N(C(C)C)c4ccccc43)c(=O)n12` (stereo not given), the GI50 was 0.321 µM and the TGI was 5.58 µM.

Work on `CC(C)(O)c1ccc(N2CCN(c3nnc(Cc4ccccc4)c4ccccc34)CC2)nc1` yielded a GI50 of 2.78 µM and a TGI of 12.8 µM.

`C=C(C)[C@@H]1CC[C@]2(C(=O)NCCCN)CC[C@]3(C)[C@H](CC[C@@H]4[C@@]5(C)CC[C@H](O)C(C)(C)[C@@H]5CC[C@]43C)[C@@H]12` showed a GI50 of 12.6 µM and a TGI of 48.5 µM.

For `O=S(=O)(c1ccc(NC(=S)NCc2cccnc2)cc1)N1CCCCC1`, the GI50 was 9.8 µM and the TGI was 95.8 µM.

`CCCC(=O)NC(c1cccnc1)c1ccc2c(C)ccnc2c1O` (stereo not given) was tested, and the GI50 was 1.68 µM and the TGI was 6.91 µM.

With `COc1cc2nc(Cl)nc(Nc3cccc(C(=O)/C=C/c4ccccc4)c3)c2cc1OC` the GI50 was 3.39 µM and the TGI was > 100 µM.

Molecule `O=C(CCl)c1ccc([N+](=O)[O-])o1` has a GI50 of 1.06 µM and a TGI of 2.77 µM.

For `O=C(Nc1cccc(Cl)c1)Nc1ncc(CCNc2ncnc3ccsc23)s1`, the GI50 was 0.196 µM and 0.952 µM and the TGI was 8.39 µM and > 10 µM.

Molecule `NC(=O)[C@H]1CCN(c2ncnc(N)c2F)C[C@@H]1N1CCC[C@@H](Nc2cc(Cl)cc(C(F)(F)F)c2)C1=O` has a GI50 of 11.2 µM and a TGI of 34.4 µM.

Work on `O=C1C(Cl)=C(N/N=c2/[nH][nH]/c(=N/NC3=C(Cl)C(=O)c4ccccc4C3=O)c3ccccc23)C(=O)c2ccccc21` yielded a GI50 of 14.7 µM and a TGI of 32.9 µM.

`COc1ccc([C@@H]2[C@@H](O)C(=O)N2c2cc(OC)c(OC)c(OC)c2)cc1F` was tested, and the GI50 was 0.0269 µM and the TGI was 0.398 µM.

Molecule `CC1=C(C)C(=O)C(Nc2cccc(C(F)(F)F)c2)=C(Cl)C1=O` has a GI50 of 1.24 µM and a TGI of 2.94 µM.

`COc1cccc(C2=C(c3cn(C)c4ccccc34)C(=O)NC2=O)c1` was tested, and the GI50 was 5.13 µM and the TGI was > 25 µM.

With `C[C@]12CC[C@H]3[C@@H](CC=C4C[C@@H](O)CC[C@@]43C)[C@@H]1CC[C@@H]2[C@](C)(O)CCc1cccnc1` the GI50 was 1.91 µM and the TGI was > 100 µM.

Work on `CCCN1C(=O)/C(=c2\sc3n(c2=O)C2C(NN=3)N(CC)C(=O)N2CC)c2ccccc21` (stereo not given) yielded a GI50 of 0.464 µM and a TGI of 10.4 µM.

With `OCC1OC(n2ccc3c2ncn2ncnc32)C(O)C1O` (stereo not given) the GI50 was 0.279 µM and the TGI was 3.19 µM.

For `CCc1ccc(NC(=O)Nc2c[nH]c3ccccc23)cc1`, the GI50 was 18.8 µM and the TGI was > 56.5 µM.

With `CC1=C(C(=O)OCc2ccccc2)C(c2ccc3c(c2)OCO3)n2c(nc3ccccc32)N1` (stereo not given) the GI50 was 0.247 µM and the TGI was 39.5 µM.

With `N=C(N)c1nn(C2OC(CO)C(O)C2O)c2nc[nH]c(=O)c12` (stereo not given) the GI50 was 0.372 µM and the TGI was 1.69 µM.

`COc1cc2cc(Oc3ccc(NC(=O)Nc4ccc(Cl)c(C(F)(F)F)c4)cc3)c(C)nc2cc1OCCN1CCCCC1` showed a GI50 of 1.34 µM and a TGI of 2.85 µM.

Molecule `CCCN(Cc1ccc(F)cc1)c1ccc(CO)c(Cl)c1` has a GI50 of 0.0212 µM and a TGI of 0.0625 µM.

Work on `c1ccc2nc(Cn3c[n+](Cc4ccc5ccccc5n4)c4ccccc43)ccc2c1` yielded a GI50 of 0.645 µM and a TGI of 5.44 µM.

Molecule `CNC(=O)c1cc(N2CCc3cc(NC(=O)Nc4ccc(N5CCN(C)CC5)c(C(F)(F)F)c4)ccc32)ccn1` has a GI50 of 3.68 µM and a TGI of 7.95 µM.

In the case of `CCOC(=O)Cc1c[nH]c(=S)[nH]c1=O`, the GI50 is reported as > 100 µM and the TGI is reported as > 100 µM.

Molecule `CN(C)c1ccc2nc3ccc(=[N+](C)C)cc-3oc2c1` has a GI50 of 0.62 µM and a TGI of 3.58 µM.

`COc1cc(Cn2cc3c(c2)-c2oncc2CC3)cc(OC)c1OC` showed a GI50 of 0.0147 µM and a TGI of 0.0541 µM.

For `O=C(CCN1CCCC1)Nc1ccc2c(NCc3ccc(F)cc3)c3ccccc3nc2c1`, the GI50 was 0.318 µM and the TGI was 1.4 µM.

In the case of `N#CSc1ncnc2nc[nH]c12`, the GI50 is reported as 0.522 µM and the TGI is reported as > 100 µM.

For `CCN(CC)c1ccc(/C=C/c2cc(C)c3ccccc3n2)cc1`, the GI50 was 3.06 µM and the TGI was 9.02 µM.

`COc1ccc(Cn2nc(-c3cc(OC)c(OC)c(OC)c3)c3c2CCc2cnoc2-3)cc1OC` showed a GI50 of 1.94 µM and a TGI of 8.84 µM.

Work on `Cc1cc(N2CCCCC2)nc(N(CCNc2ccnc3cc(Cl)ccc23)Cc2ccco2)n1` yielded a GI50 of 1.74 µM and a TGI of 3.87 µM.

With `COc1cc2c(cc1OC)-c1ccc3cc4c(cc3c1N(CCN1CCCC1)C2)OCO4` the GI50 was 0.653 µM and the TGI was 2.2 µM.

— PubChem BioAssay (NCI)
